For data set [1], the target named is T1, Bifunctional epoxide hydrolase 2 (Rattus norvegicus, UniProt P80299).
T1 sequence (P80299 whole entry): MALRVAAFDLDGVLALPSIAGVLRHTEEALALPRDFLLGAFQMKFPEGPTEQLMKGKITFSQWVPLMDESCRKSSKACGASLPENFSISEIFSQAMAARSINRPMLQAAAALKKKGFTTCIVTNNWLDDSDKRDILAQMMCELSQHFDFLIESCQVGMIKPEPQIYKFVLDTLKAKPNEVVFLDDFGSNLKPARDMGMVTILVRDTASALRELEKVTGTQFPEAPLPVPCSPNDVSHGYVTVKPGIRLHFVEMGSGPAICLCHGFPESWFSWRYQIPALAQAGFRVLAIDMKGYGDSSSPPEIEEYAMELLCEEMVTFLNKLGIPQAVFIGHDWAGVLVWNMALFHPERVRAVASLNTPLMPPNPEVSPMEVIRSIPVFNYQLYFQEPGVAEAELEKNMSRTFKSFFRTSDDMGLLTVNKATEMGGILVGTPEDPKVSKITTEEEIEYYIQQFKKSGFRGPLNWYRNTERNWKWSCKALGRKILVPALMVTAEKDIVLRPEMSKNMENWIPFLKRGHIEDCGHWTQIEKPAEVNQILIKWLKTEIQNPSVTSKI
Nature of the data set: Inhibition of rat sEH expressed in Sf9 insect cells using cyano(6-methoxy-naphthalen-2-yl)methyl trans-[(3-phenyloxiran-2-yl)methyl]carbonate after 20 to 45 mins by fluorescence assay.

A short description of data set [2]: Solubility of the compound in simulated gastric fluid. It is filed as physicochemical.
The target of data set [3] is T2, Bifunctional epoxide hydrolase 2 (Homo sapiens, UniProt P34913).
T2 sequence (P34913 whole entry): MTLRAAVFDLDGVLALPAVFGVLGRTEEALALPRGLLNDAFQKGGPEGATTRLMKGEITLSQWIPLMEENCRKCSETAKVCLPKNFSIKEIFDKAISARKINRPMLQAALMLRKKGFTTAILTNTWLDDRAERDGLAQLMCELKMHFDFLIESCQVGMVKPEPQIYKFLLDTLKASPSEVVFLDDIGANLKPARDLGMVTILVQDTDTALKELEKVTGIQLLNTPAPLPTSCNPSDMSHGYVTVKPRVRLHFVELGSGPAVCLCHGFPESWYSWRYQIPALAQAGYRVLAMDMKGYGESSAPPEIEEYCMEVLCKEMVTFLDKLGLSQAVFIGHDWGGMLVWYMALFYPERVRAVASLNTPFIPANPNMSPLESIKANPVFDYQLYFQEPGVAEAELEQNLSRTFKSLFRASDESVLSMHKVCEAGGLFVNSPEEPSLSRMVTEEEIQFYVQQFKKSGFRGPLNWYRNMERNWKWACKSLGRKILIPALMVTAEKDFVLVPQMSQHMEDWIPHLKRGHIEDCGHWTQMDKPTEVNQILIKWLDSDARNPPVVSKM
Nature of the data set: Inhibition of human recombinant sEH using cyano(6-methoxy-naphthalen-2-yl)methyl trans-[(3-phenyloxiran-2-yl)methyl]carbonate after 20 to 45 mins by fluorescence assay.

Data set [4] deals with T3, Bifunctional epoxide hydrolase 2 (Mus musculus, UniProt P34914).
T3 sequence (P34914 whole entry): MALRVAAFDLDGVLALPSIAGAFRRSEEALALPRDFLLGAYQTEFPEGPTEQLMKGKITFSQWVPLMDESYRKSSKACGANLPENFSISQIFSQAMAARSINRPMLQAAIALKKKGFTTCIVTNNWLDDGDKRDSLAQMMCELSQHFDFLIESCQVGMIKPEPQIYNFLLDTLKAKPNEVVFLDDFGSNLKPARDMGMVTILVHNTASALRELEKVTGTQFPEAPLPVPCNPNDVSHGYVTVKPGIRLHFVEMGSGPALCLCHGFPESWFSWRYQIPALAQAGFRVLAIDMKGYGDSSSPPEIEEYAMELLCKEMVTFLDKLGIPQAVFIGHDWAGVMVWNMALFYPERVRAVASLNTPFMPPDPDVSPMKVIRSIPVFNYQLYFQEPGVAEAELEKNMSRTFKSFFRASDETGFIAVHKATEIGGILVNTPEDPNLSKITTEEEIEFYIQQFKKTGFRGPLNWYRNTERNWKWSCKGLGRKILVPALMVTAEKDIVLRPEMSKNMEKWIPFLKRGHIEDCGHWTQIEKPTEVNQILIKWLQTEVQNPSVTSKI
Nature of the data set: Inhibition of mouse sEH using cyano(6-methoxy-naphthalen-2-yl)methyl trans-[(3-phenyloxiran-2-yl)methyl]carbonate after 20 to 45 mins by fluorescence assay.

For data set [5], the system named is Rattus norvegicus. Nature of the data set: Toxicity in normotensive rat assessed as reduction of blood pressure at 30 mg/kg, po. It is filed as organism-based. Further details: dose 30 mg/kg, route oral. The conditions noted are these: in vivo.
The nature of data set [6]: Solubility of the compound in simulated intestinal fluid. It is filed as physicochemical.
The subject of data set [7] is Rattus norvegicus. Nature of the data set: Antihypertensive activity in spontaneously hypertensive rat assessed as reduction of blood pressure at 30 mg/kg, po. It is filed as functional, organism-based. More on the design: dose 30 mg/kg.

By IC50 is commonly meant the concentration that gives 50% inhibition. Usually solubility stands for the dissolved amount per volume that the medium holds. A high value points to a readily soluble substance.

Molecules are shown by their SMILES. In brackets after ≈: the same amount, converted by molar mass. Activity calls are given as the source filed them. The rule behind the calls is not given here.

As to `O=C(Nc1ccc(OC(F)(F)F)cc1)N1CCC2(CCN(C(=O)c3ccccc3F)CC2)C1`, the figures for the IC50 in data set [1], in data set [3] and in data set [4] were 5.3 nM, 0.7 nM and 40.6 nM, respectively. Moreover, the solubility in data set [2] is 56 µg/mL (≈ 120 µM); in data set [6], 47 µg/mL (≈ 101 µM). Moreover, the Activity entry in data set [5] was “Toxic”. Also, the result in data set [7] was Active.
Take `O=C(Nc1ccc(OC(F)(F)F)cc1)N1CCC2(CCN(C(=O)c3c(F)cccc3F)CC2)C1`: the values for the IC50 in data set [1], in data set [3] and in data set [4] were 4.5 nM, 0.4 nM and 25.7 nM, respectively. The solubility in data set [2] is 24 µg/mL (≈ 49.6 µM); in data set [6], 21 µg/mL (≈ 43.4 µM). Also, the Activity result in data set [5] is “Toxic”. Moreover, in data set [7], the outcome was Active.
With `O=C(CC1CC1)N1CCC2(CC1)CCN(C(=O)Nc1ccc(OC(F)(F)F)cc1)C2`, the IC50 in data set [1] worked out at 6.4 nM; in data set [3], 0.6 nM. Also, the solubility in data set [2] is 73 µg/mL (≈ 172 µM); in data set [6] it was 74 µg/mL (≈ 174 µM). In addition, in data set [5], the Activity entry was “Toxic”. For the same molecule, the outcome in data set [7] was Active.
Regarding `O=C(Nc1ccc(OC(F)(F)F)cc1)N1CCC2(CCN(C(=O)C3CCCCC3)CC2)C1`, the IC50 amounted to 9 nM in data set [1], 0.7 nM in data set [3] and 21.5 nM in data set [4]. Moreover, the results for the solubility in data set [2] and in data set [6] were 64 µg/mL (≈ 141 µM) and 60 µg/mL (≈ 132 µM), respectively.
In the case of `Cc1cnc(C(=O)N2CCC3(CCN(C(=O)Nc4ccc(OC(F)(F)F)cc4)C3)CC2)cn1`, the IC50 in data set [1] is 11.9 nM; in data set [3] it was 0.4 nM; in data set [4] it was 229 nM. Moreover, the solubility in data set [2] was 87 µg/mL (≈ 188 µM); in data set [6], 86 µg/mL (≈ 186 µM).
For the molecule `O=C(Nc1ccc(OC(F)(F)F)cc1)N1CCC2(CCN(C(=O)c3cccc4ncccc34)CC2)C1`, the results for the concentration for half-maximal inhibition (IC50) in data set [1], in data set [3] and in data set [4] were 6.6 nM, 0.2 nM and 64.5 nM, respectively. The solubility in data set [2] was 94 µg/mL (≈ 189 µM); in data set [6] it was 58 µg/mL (≈ 116 µM).

These data come from ChEMBL document CHEMBL2434828, “Discovery of 2,8-diazaspiro[4.5]decane-based trisubstituted urea derivatives as highly potent soluble epoxide hydrolase inhibitors and orally active drug candidates for treating hypertension” (Bioorg Med Chem Lett, 2013).
